Results on seven compounds are retold here after the supplement of paper PMC8967900.

Among the test systems are HPB-ALL; RPMI-8402; COG-LL-402h; TMD5; JURKAT; MHH-CALL-3; MOLT-16; MOLT-14; ALL-PO; P30-OHKUBO; 697; P12-ICHIKAWA; SUP-B15; KASUMI-2; TANOUE; NALL-1; KOPN-8; COG-LL-394h; COG-LL-332h; KASUMI-9.
Assay in all cases: selective drug sensitivity score (sDSS, relative to normal bone marrow) (sDSS (score)); higher = more potent and effective on the cell line relative to normal bone marrow cells
What all share (details): 72 h
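Further: ALL cell lines in 384-well plates, five doses spanning 10,000-fold, each plate scaled between vehicle and 100 µmol/L benzalkonium chloride controls, sDSS an adapted area-under-curve metric.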

For the compound `CCc1c2c(nc3ccc(O)cc13)-c1cc3c(c(=O)n1C2)COC(=O)[C@]3(O)CC` [SN-38] (top concentration 10000 nM), the “selective drug sensitivity score” value with HPB-ALL was 11.2; in the assay on RPMI-8402, 25.4; in the assay on COG-LL-402h, 21.1; in the assay with TMD5, 18.3; in the assay with JURKAT, 22.7; with MHH-CALL-3, 16.2. The “selective drug sensitivity score” value with MOLT-16 worked out at 28.2; in the assay on MOLT-14, 28; in the assay on ALL-PO, 19.5; in the assay on P30-OHKUBO, 24.6; in the assay on 697, 22.7; in the assay with P12-ICHIKAWA, 26.5. Besides, the “selective drug sensitivity score” value in the assay with SUP-B15 was 26.9; in the assay on KASUMI-2, 18.8; with TANOUE it was -5.52; in the assay with NALL-1, 24.4; in the assay with KOPN-8, 28; in the assay with COG-LL-394h, 13.8. Besides, the “selective drug sensitivity score” value in the assay with COG-LL-332h was 27.6; in the assay with KASUMI-9 it was 23.5.

On to `CC[C@@H](C(=O)[C@@H](C)[C@@H](O)[C@H](C)[C@@H]1O[C@@H]([C@@H](CC)C(=O)O)CC[C@@H]1C)[C@H]1O[C@]2(C=C[C@@H](O)[C@]3(CC[C@@](C)([C@H]4CC[C@](O)(CC)[C@H](C)O4)O3)O2)[C@H](C)C[C@@H]1C` [Salinomycin] (top concentration 50000 nM), for which the “selective drug sensitivity score” value with HPB-ALL is -1.2; in the assay with RPMI-8402, 10.1; in the assay with COG-LL-402h, -4; with TMD5 it was 1.1; with JURKAT, 3.1; with MHH-CALL-3 it was -3.3. In addition, the “selective drug sensitivity score” value in the assay on MOLT-16 is 10.7; in the assay with MOLT-14, 6.3; with ALL-PO, -13.2; in the assay on P30-OHKUBO it was -7.8; in the assay on 697, -0.9; with P12-ICHIKAWA, -2. Besides, the “selective drug sensitivity score” value was -11.1 with SUP-B15; -23.2 in the assay with KASUMI-2; -7.5 with TANOUE; 2.2 in the assay with NALL-1; -8.4 in the assay with KOPN-8; 3.2 in the assay on COG-LL-394h. The “selective drug sensitivity score” value in the assay on COG-LL-332h is -2.9; with KASUMI-9, -11.4.

Turning to `CNC(=O)CN1CCC(Oc2cc3c(Nc4cccc(Cl)c4F)ncnc3cc2OC)CC1` [Sapitinib] (top concentration 1000 nM), the “selective drug sensitivity score” value with HPB-ALL was determined as 0; in the assay with RPMI-8402 it was 0; in the assay with COG-LL-402h, 0; in the assay on TMD5, 0; in the assay with JURKAT it was 0; with MHH-CALL-3, 0.1. In addition, the “selective drug sensitivity score” value in the assay on MOLT-16, in the assay with MOLT-14, with ALL-PO, in the assay on P30-OHKUBO, with 697 and with P12-ICHIKAWA was 0 throughout. Besides, the “selective drug sensitivity score” value in the assay with SUP-B15, with KASUMI-2, in the assay on TANOUE, in the assay on NALL-1, with KOPN-8 and in the assay on COG-LL-394h was 0 throughout. The “selective drug sensitivity score” value with COG-LL-332h and with KASUMI-9 was 0 throughout.

Regarding `O[C@H]1CC[C@H](Nc2ncc3nc(Nc4c(F)cc(F)cc4F)n([C@H]4CCOC4)c3n2)CC1` [Tanzisertib] (top concentration 10000 nM), the “selective drug sensitivity score” value in the assay on HPB-ALL, in the assay with RPMI-8402, in the assay with COG-LL-402h, in the assay on TMD5, in the assay with JURKAT and in the assay on MHH-CALL-3 was 0 each time. Further, the “selective drug sensitivity score” value was determined as 0 in the assay on MOLT-16; 0 in the assay on MOLT-14; 1.9 in the assay on ALL-PO; 0 in the assay with P30-OHKUBO; 0 with 697; 0 in the assay with P12-ICHIKAWA. The “selective drug sensitivity score” value in the assay on SUP-B15 was determined as 0; in the assay with KASUMI-2, 0; in the assay on TANOUE it was 0; in the assay with NALL-1, 0; in the assay on KOPN-8 it was 1.4; with COG-LL-394h, 0. Further, the “selective drug sensitivity score” value in the assay with COG-LL-332h and in the assay with KASUMI-9 was 0 in each case.

In the case of `CO[C@H]1C[C@@H]2CC[C@@H](C)[C@@](O)(O2)C(=O)C(=O)N2CCCC[C@H]2C(=O)O[C@H]([C@H](C)C[C@@H]2CC[C@@H](OC(=O)C(C)(CO)CO)[C@H](OC)C2)CC(=O)[C@H](C)/C=C(\C)[C@@H](O)[C@@H](OC)C(=O)[C@H](C)C[C@H](C)/C=C/C=C/C=C/1C` [Temsirolimus] (top concentration 100 nM), the “selective drug sensitivity score” value in the assay with HPB-ALL is -4.44; with RPMI-8402, -1.04; with COG-LL-402h, 4.66; in the assay with TMD5, -5.04; with JURKAT it was -0.54; with MHH-CALL-3, 7.36. The “selective drug sensitivity score” value was 11.7 with MOLT-16; -4.24 in the assay with MOLT-14; 2.56 with ALL-PO; 6.36 in the assay with P30-OHKUBO; 14.9 in the assay with 697; -1.44 in the assay with P12-ICHIKAWA. Besides, the “selective drug sensitivity score” value in the assay on SUP-B15 is 9.86; in the assay with KASUMI-2, 6.46; in the assay on TANOUE, -5.04; with NALL-1 it was -5.04; with KOPN-8, 21.9; with COG-LL-394h it was -5.04. For the same compound, the “selective drug sensitivity score” value in the assay with COG-LL-332h is 8.46; in the assay with KASUMI-9, 9.06.

As to `COc1cc([C@@H]2c3cc4c(cc3[C@@H](O[C@@H]3O[C@@H]5CO[C@@H](c6cccs6)O[C@H]5[C@H](O)[C@H]3O)[C@H]3COC(=O)[C@H]23)OCO4)cc(OC)c1O` [Teniposide] (top concentration 10000 nM), the “selective drug sensitivity score” value in the assay with HPB-ALL is 0; with RPMI-8402, 0; in the assay on COG-LL-402h, 0.1; with TMD5, 0; with JURKAT, 0; with MHH-CALL-3, 0. Also, the “selective drug sensitivity score” value with MOLT-16, in the assay with MOLT-14, in the assay with ALL-PO, in the assay with P30-OHKUBO, with 697 and with P12-ICHIKAWA was 0 each time. The “selective drug sensitivity score” value in the assay on SUP-B15 is 0; with KASUMI-2, 2.4; in the assay on TANOUE it was 0; in the assay on NALL-1, 0; with KOPN-8 it was 0; in the assay with COG-LL-394h it was 0. Moreover, the “selective drug sensitivity score” value with COG-LL-332h and with KASUMI-9 was 0 each time.

As to `Oc1nc(-c2ccc(C(F)(F)F)cc2)nc2c1CSCC2` [XAV939] (top concentration 10000 nM), the “selective drug sensitivity score” value with HPB-ALL is -0.14; with RPMI-8402, -0.14; in the assay with COG-LL-402h, 0.16; in the assay with TMD5, -0.14; with JURKAT, -0.14; in the assay on MHH-CALL-3, -0.14. Besides, the “selective drug sensitivity score” value is -0.14 in the assay with MOLT-16; -0.14 in the assay on MOLT-14; 0.06 with ALL-PO; -0.14 in the assay on P30-OHKUBO; -0.14 with 697; -0.14 in the assay with P12-ICHIKAWA. For the same compound, the “selective drug sensitivity score” value was -0.14 in the assay on SUP-B15; 1.46 in the assay on KASUMI-2; -0.14 in the assay with TANOUE; -0.14 in the assay with NALL-1; 0.66 with KOPN-8; 0.36 in the assay on COG-LL-394h. The “selective drug sensitivity score” value in the assay with COG-LL-332h and with KASUMI-9 was -0.14 throughout.
